Consider 91 compounds from a melting point compilation (Tetko et al.; mined from patent text by program, amines drawn as free bases though some values may be those of a salt).

The structures appear in SMILES notation. Residues, ends and D or L forms follow the SMILES beside them. *: point of attachment. Cbz = O=C(OCc1ccccc1)*

As a reminder, the melting point is the temperature, or range, at which the solid turns liquid. `COC(=O)C(CC(C)C)NC(=O)C(CC(N)=O)NC(=O)OCc1ccccc1` (stereo not drawn) (Cbz-Asn-Leu-OMe; configuration not given here) returned a melting point of 191 to 193 °C.
As for `C=CCOC(=O)[C@@H]1CC[C@@H]2CN1C(=O)N2OCc1ccccc1`, the melting point is 60 to 62 °C.
Regarding `CCCc1c2c(c([N+](=O)[O-])c3c(=O)cc(C(=O)O)oc13)CCCC2`, the melting point fell in the range of 265 to 267 °C.
For the compound `FC(F)(F)COC(c1ccccc1)(c1ccccc1)c1ccccc1`, the melting point worked out at 111 °C.
The value for `CCCCC(=O)Oc1ccc(-c2nc(-c3ccc(Cl)cc3)c(CC(=O)O)s2)cc1` was 197 to 199 °C; that for `CCOC(=O)Nc1cc2c(cc1F)nc(C(F)(F)F)n2Cc1cccc(Cl)c1` was 144 to 146 °C; that for `COCc1cc(-c2ccccc2)c(=O)n2c1-c1sccc1CC2` was 120 °C.
The value for `Nc1cccc(-c2ccc(OC3CN(Cc4ccccn4)C3)c3ccccc23)n1` was 97 to 120 °C.
`Cc1nc(-c2ccccc2)nc(-c2cccc([N+](=O)[O-])c2)c1CO` yielded a melting point of 177 to 178 °C.
On to `COc1cc(Nc2c(C#N)cnc3cc(Cl)c([N+](=O)[O-])cc23)c(C)cc1Cl`, for which the melting point lay in the range of 217 to 219 °C.
The result for `Cc1ccccc1OS(=O)(=O)c1ccc(N2CCCNC2=O)cc1` reads 161 to 163 °C.
The value for `CCCCc1ccc(CNc2cc(C(=O)Nc3ccccc3)ccc2OC)cc1` was 171 to 173 °C; that for `Cc1ccc(C(=O)OC(C)(C)C)cc1C=O` was 53 to 55 °C; that for `COCC1C(=O)C(C)(C)C(=O)N1c1ccc(C#N)c(Cl)c1` (stereo unspecified) was 98 to 99 °C.
The value for `Cc1c(Br)c2ccccn2c1C(=O)c1cc(Cl)c(O)c(Cl)c1` was 240 °C.
The compound `CSc1nc(CO)c(CO)n1C` returned a melting point of 119 to 120 °C.
The value for `COc1cc(C=C(N)C(C)=O)ccc1OCC1CO1` (stereo unspecified) was 173 to 174 °C.
The value for `COc1ccc(NC(=O)CCCCCC(C)=O)cc1` was 106 to 107 °C; that for `COc1cc(CNc2nc(NCCc3ccccn3)nc3ncccc23)cc(OC)c1` was 157 to 158 °C.
In the case of `O=C(NC1CCNC1)C12CC3CC(CC(C3)C1)C2` (stereo unspecified), the melting point was in the range of 186 to 188 °C.
The value for `CCCCCC(=O)NC(=O)C(c1ccccc1)c1ccccc1` was 87 °C; that for `Cc1ccccc1C1(O)c2cc(NC(=O)CC(C)(C)C)c(C)c(C)c2OC1(C)C` (stereo unspecified) was 111 to 112 °C; that for `O=C(O)C(Cc1ccccc1)Oc1ccc2cc(-c3nc(-c4ccccc4)sc3Br)ccc2c1Br` (stereo unspecified) was 221 to 223 °C.
The result for `CC(C)(C)c1cc(C(=O)OCCC(=O)Oc2ccc(Cl)c([N+](=O)[O-])c2)cc(C(C)(C)C)c1O` reads 106 to 108 °C.
As for `COC(=O)C(C)(C)OCc1cc2cc(Cl)ccc2n1S(=O)(=O)c1ccc2c(c1)OCO2`, the melting point fell in the range of 90 to 92 °C.
The value for `c1ccc(CCNc2nc3ccccc3c3[nH]c(C4CCCC4)nc23)cc1` was 95 to 97 °C; that for `CCc1[nH]n(C2CCCC2)c2nc(Cc3cccs3)nc(=O)c1-2` was 173 to 174 °C; that for `CSc1ccc(-c2ccccn2)c2c1C(=O)CC(C)(C)C2` was 152 to 154 °C.
`Cc1c(C(=O)CBr)ncn1C` yielded a melting point of 276 to 277 °C.
The result for `COC(=O)c1nc(N)sc1-c1ccccc1` reads 208 °C; that for `O=c1ncc(Cl)cn1C(SCc1ccccc1)c1ccccc1` (stereo unspecified), 118 °C.
The value for `CC(C)(CCl)C(=O)NO` was 148 to 151 °C.
On to `COc1c([N+](=O)[O-])cc(C=O)c(Cl)c1OC(C)=O`, for which the melting point fell in the range of 84 to 85 °C.
The value for `CN1NC(=O)CSC1=Nc1ccc(Cl)c(Cl)c1` was 118 to 120 °C; that for `Cc1cc2c(-c3cccc(C=O)c3)c(CC(=O)O)c(=O)oc2cc1Cl` was 230 to 232 °C.
The value for `O=C(O)[C@H](Cc1ccsc1)NN1C(=O)c2ccccc2C1=O` was 166 to 168 °C; that for `O=C(NCC1CC1)c1[nH]c2ccc(Cl)cc2c1S(=O)(=O)c1ccccc1` was 232 to 234 °C.
As for `C[C@]1(CN2CCC(Cc3ccc(OC(F)(F)F)cc3)CC2)Cn2cc([N+](=O)[O-])nc2O1`, the melting point was 111 to 112 °C.
The result for `Cc1ccc(-c2cnc(C#Cc3ccc(C)s3)s2)cc1` reads 101 to 103 °C.
With `Cc1csc(C(=O)OC(C)C)c1S(=O)(=O)Cl`, the melting point stood at 58 °C.
The value for `CCOC(=O)Nc1ccc(CN2OCC(C)(C)C2=O)c(Cl)c1` was 162 to 164 °C.
The value for `O=C(O)c1cc2c(s1)C1CCC2C1` (stereo unspecified) was 183 to 184 °C; that for `CC(C)[C@@H](NCC1(O)OC[C@@H](O)[C@@H](O)[C@@H]1O)C(=O)O` (stereo partly specified) was 125 to 126 °C.
The result for `Nc1ccc(C2(C(=O)O)CC2C(=O)O)cc1` (stereo unspecified) reads 154 to 155 °C; that for `CCOC(=O)C=Cc1cc(OC)c(OCc2ccccc2)c(OC)c1`, 68 to 69 °C.
Take `C=CCN1CCCC1CNC(=O)c1cc(S(=O)(=O)CC)cc2c1OCCO2` (stereo unspecified): the melting point fell in the range of 78 to 80 °C.
The result for `CN(C(=O)C(F)(F)F)C(C(=O)O)c1ccccc1` (stereo unspecified) reads 124 to 126 °C; that for `c1ccc(-c2cc(NC3=NCCN3)cc3[nH]cnc23)cc1`, 149 to 151 °C.
The value for `CCn1ncc2c(NCC3CCCCC3)c3cc(S(C)=O)ccc3nc21` (stereo unspecified) was 186 to 187 °C.
On to `COC(=O)NCC1Cc2cc(Cl)cc(C3CCCCC3)c2O1` (stereo unspecified), for which the melting point is 100 to 103 °C.
In turn, `COc1ccc(N2CCCn3c2nc2c(Cl)ccc(C(OC)C(F)(F)F)c23)c(C)n1` (stereo unspecified) returned a melting point of 144 to 146 °C.
In turn, `CC(=O)OCC1(COC(C)=O)CC1(Br)Cn1cc(C)c(=O)[nH]c1=O` (stereo unspecified) returned a melting point of 197 to 198 °C.
In the case of `CCC(=C[N+](=O)[O-])NCc1ccc(Cl)nc1`, the melting point is 95 to 98 °C.
The result for `CC(C)N(C(=O)n1oc(=O)n(C)c1=O)c1ccc(Cl)cc1` reads 121 to 123 °C; that for `CCN(CC)C(=O)CCc1nc(-c2cccs2)nc2ccccc12`, 106 °C; that for `CCCCCC(O)C=Cn1c(=O)n(CCN2CCN(c3ccccc3OC)CC2)c(=O)c2ccccc21` (stereo unspecified), 118 to 119 °C.
The result for `O=[N+]([O-])c1cccc(/C=C/c2nc(C3CCCC3)cs2)c1` reads 65 to 70 °C; that for `CC(C)(COc1ccc([N+](=O)[O-])cc1)c1ccccc1`, 79 to 80 °C; that for `COc1ccc(Cl)c(Nc2c(C#N)cnc3c2C=C2N=CN=C2C3)c1`, 296 to 298 °C.
Turning to `COc1cccc(OC)c1CNC(=O)c1ccc2cnccc2n1`, the melting point was 169 to 171 °C.
The value for `Cc1c(C(=O)O)oc2cc(O)c(Cl)cc12` was 279 to 280 °C.
The result for `CC(C)c1nn2ccccc2c1C(O)C(C)C` (stereo unspecified) reads 69 °C.
The value for `Clc1ncnc2cc3c(cc12)OCCO3` was 169 to 174 °C; that for `Cc1cc(CN(Cc2ccsc2)c2sc(-c3ccc(C(F)(F)F)cc3)nc2C)cc(C)c1OC(C)(C)C(=O)O` was 90 to 100 °C; that for `Cc1cc(-c2ccc(-c3ccc(OCC4CO4)cc3)cc2)ccc1OCC1CO1` (stereo unspecified) was 180 °C.
With `COCCOCCOc1cc(OC)c(-c2cccs2)cc1/C=C/C(=O)c1ccc(C(=O)O)cc1`, the melting point lay in the range of 145 to 146 °C.
In turn, `C=CCOc1ccc2ccc(OCC(=O)OC)cc2c1` registered a melting point of 69 to 70 °C.
Compound `COC(=O)[C@@H](Cc1ccc(-c2ncnc3c2ncn3[C@@H]2CCCCO2)cc1)NC(=O)OC(C)(C)C` registered a melting point of 144 to 147 °C.
The compound `CCOc1c(NCc2ccc(Br)cc2CC)c(=O)c1=O` displayed a melting point of 217 to 224 °C.
As for `CC(C)C(O)(CCc1ccc(OCc2ccccc2)cc1)CC(=O)O` (stereo unspecified), the melting point fell in the range of 97 to 98 °C.
The result for `CN(C)c1ccc(-c2cccc3c2C2(COc4cc5c(cc42)OCCO5)C(=O)N3Cc2ccccn2)cn1` (stereo unspecified) reads 187 to 188 °C.
The value for `Cc1oc(-c2ccccc2)nc1COc1ccc(C=NO)cc1` was 192 to 193 °C; that for `CC(=O)O[C@H]1[C@H](OC(C)=O)CSC(Oc2ccc3c(ccn3C(=O)OC(C)(C)C)c2)[C@@H]1OC(C)=O` (stereo partly specified) was 58 to 62 °C; that for `Nc1ccc(C(=O)N2CCCCc3sc(Cl)cc32)cc1` was 146 to 149 °C.
The value for `Cc1nc[nH]c1CSCCN=C(NC#N)NCCSCc1[nH]cnc1C` was 92 to 95 °C; that for `FC(F)(F)Cn1cc(C#Cc2cccc(Br)c2)cn1` was 107 to 109 °C.
In turn, `Clc1ccc(C=CC=Cc2ccccc2)cc1` registered a melting point of 161 °C.
The value for `COC(=O)Cc1ccc(CNC(=O)C2Cc3ccccc3N2S(=O)(=O)c2ccc(-c3cccc(Cl)c3)cc2)cc1` (stereo unspecified) was 70 °C; that for `COC(=O)c1ccc(CC(C)NCC(O)c2cccc(Cl)c2)cc1` (stereo unspecified) was 94 to 96 °C; that for `Oc1ccc(Nc2cnc3cc(Cl)ccc3c2)cc1` was 218 °C.
The value for `Cc1nc(N)c2nc(C)n(CCOCCCc3ccccc3)c2c1C` was 118 to 119 °C; that for `COc1ccc(COc2cc(N)c(Cl)cc2C(=O)CCCCN2CCCCC2)cc1OC` was 120 to 122 °C.
The result for `O=Cc1cnccc1Cl` reads 53 to 54 °C.
`Fc1ccc(C(OCCCN2CCN(C(c3ccccc3)c3ccccc3)CC2)c2ccc(F)cc2)cc1` displayed a melting point of 78 to 79 °C.
The value for `COc1ccc(-n2nc(Sc3ccc(C(C)C)cc3)c(C)c(C#N)c2=O)cc1` was 141 to 144 °C; that for `O=C(CCCCNC(=O)c1cn2c3c(cccc13)CCC2)NO` was 179 to 181 °C; that for `OCCCNC1=Nc2ccccc2C1(O)c1ccccc1` (stereo unspecified) was 215 to 217 °C.
On to `CC(C)(C)CC(C)(C)c1cc(-n2nc3ccc(C(=O)O)cc3n2)c(O)c(C(C)(C)c2ccccc2)c1`, for which the melting point fell in the range of 219 to 221 °C.
`O=C1NCCNC1c1cn(Cc2ccc(Cl)cc2)c2ccccc12` (stereo unspecified) registered a melting point of 195 °C.
The compound `CC(C)c1c(-c2ccccc2)[nH]c2nccnc12` had a melting point of 216 to 218 °C.
The result for `C=CCNc1nc(N2CCCCC2)c2cc([N+](=O)[O-])ccc2n1` reads 123 to 124 °C.
